Laboratory results published in ChEMBL document CHEMBL3758125 (J Med Chem, 2016).
pEC50: −log10 of the molar value. Active and inactive are the calls of the source. No cut-off for these calls is given here.

Key:
Cannabinoid receptor 1 [1] = target: T1, Cannabinoid receptor 1 (Homo sapiens, UniProt P21554); experiment: Selectivity index, ratio of EC50 for human CB1R by cAMP assay to EC50 for human CB1R by beta-arrestin recruitment assay; format: functional, single protein
Cannabinoid receptor 1 [2] = target: T1, Cannabinoid receptor 1; experiment: Negative allosteric modulator activity at human CB1R expressed in CHO-K1 cells assessed as inhibition of CP55,940-induced beta-arrestin recruitment preincubated for 30 mins followed by CP55,940 addition measured for 90 mins by PathHunter assay relative to control; format: cell-based
Cannabinoid receptor 1 [3] = target: T1, Cannabinoid receptor 1; experiment: Negative allosteric modulator activity at human CB1R expressed in CHO-K1 cells assessed as effect on CP55,940-induced inhibition of forskolin-induced cAMP accumulation preincubated for 30 mins followed by CP55,940 addition measured for 30 mins by HitHunter assay relative to control; format: functional, cell-based
Cannabinoid receptor 1 [4] = target: T1, Cannabinoid receptor 1; experiment: Negative allosteric modulator activity at human CB1R expressed in CHO-K1 cells assessed as effect on CP55,940-induced inhibition of forskolin-induced cAMP accumulation preincubated for 30 mins followed by CP55,940 addition measured for 30 mins by HitHunter assay; format: functional, cell-based
Cannabinoid receptor 1 [5] = target: T1, Cannabinoid receptor 1; experiment: Negative allosteric modulator activity at human CB1R expressed in CHO-K1 cells assessed as inhibition of CP55,940-induced beta-arrestin recruitment preincubated for 30 mins followed by CP55,940 addition measured for 90 mins by PathHunter assay; format: cell-based
[6] = target: Cannabinoid receptor 1 (Mus musculus) (UniProt P47746); experiment: Activity at CB1R in mouse brain membranes assessed as inhibition of CP55,940-induced [35S]GTPgammaS binding at 100 nM and 1 uM preincubated for 60 mins prior to [35S]GTPgammaS addition by liquid scintillation spectrometric analysis relative to control; format: functional, cell membranes; details: Membrane
[7] = target: Cannabinoid receptor 1 (Mus musculus) (UniProt P47746); experiment: Inverse agonist activity at CB1R in mouse brain membranes assessed as [35S]GTPgammaS binding at 100 nM and 1 uM preincubated for 60 mins prior to [35S]GTPgammaS addition by liquid scintillation spectrometric analysis; format: functional, cell membranes; details: Membrane
Cannabinoid receptor 1 [8] = target: T1, Cannabinoid receptor 1; experiment: Inverse agonist activity at human CB1R expressed in CHO-K1 cells assessed as inhibition [35S]GTPgammaS binding up to 1 uM preincubated for 60 mins prior to [35S]GTPgammaS addition by liquid scintillation spectrometric analysis; format: functional, cell-based
[9] = target: Cannabinoid receptor 1 (Mus musculus) (UniProt P47746); experiment: Negative allosteric modulator activity at CB1R in mouse brain membranes assessed as Emax for CP55,940-induced [35S]GTPgammaS binding at 1 uM preincubated for 60 mins prior to [35S]GTPgammaS addition by liquid scintillation spectrometric analysis relative to control (reference value: […]%); format: functional, cell membranes; details: Membrane
Cannabinoid receptor 1 [10] = target: T1, Cannabinoid receptor 1; experiment: Positive allosteric modulator activity at human CB1R expressed in HEK293 cell membranes assessed as enhanced specific binding of [3H]CP55,940 at 500 nM pre-incubated for 60 mins before [3H]CP55,940 addition followed by drug wash-out by liquid scintillation spectrometric-based saturation binding assay
Cannabinoid receptor 1 [11] = target: T1, Cannabinoid receptor 1; experiment: Agonist activity at human CB1R expressed in CHO-K1 cells assessed as inhibition of CP55,940-induced [35S]GTPgammaS binding up to 1 uM preincubated for 60 mins prior to [35S]GTPgammaS addition by liquid scintillation spectrometric analysis; format: functional, cell-based
[12] = target: Cannabinoid receptor 1 (Mus musculus) (UniProt P47746); details: Brain, Membrane, at 100 nM
Cannabinoid receptor 1 [13] = target: T1, Cannabinoid receptor 1; experiment: Positive allosteric modulator activity at human CB1R expressed in CHO cells assessed as enhanced binding of [3H]CP55,940 after 60 mins by liquid scintillation spectrometric analysis; format: cell-based
[14] = target: Cannabinoid receptor 1 (Mus musculus) (UniProt P47746); experiment: Agonist activity at CB1R in mouse brain membranes assessed as [35S]GTPgammaS binding at 100 nM and 1 uM preincubated for 60 mins prior to [35S]GTPgammaS addition by liquid scintillation spectrometric analysis; format: functional, cell membranes; details: Membrane
Cannabinoid receptor 1 [15] = target: T1, Cannabinoid receptor 1; experiment: Activity at human CB1R expressed in HEK293 cell membranes assessed as reduction in binding of [3H]CP55,940 at 500 nM after 90 to 120 mins by liquid scintillation spectrometric analysis
[16] = target: Cannabinoid receptor 1 (Mus musculus) (UniProt P47746); experiment: Negative allosteric modulator activity at CB1R in mouse brain membranes assessed as inhibition of CP55,940-induced [35S]GTPgammaS binding at 100 nM and 1 uM preincubated for 60 mins prior to [35S]GTPgammaS addition by liquid scintillation spectrometric analysis; format: functional, cell membranes; details: Membrane
Cannabinoid receptor 1 [17] = target: T1, Cannabinoid receptor 1; experiment: Positive allosteric modulator activity at human CB1R expressed in HEK293 cell membranes assessed as enhanced binding of [3H]CP55,940 at 500 nM by liquid scintillation spectrometric analysis; details: TDE = time-dependent effect
Cannabinoid receptor 1 [18] = target: T1, Cannabinoid receptor 1; experiment: Positive allosteric modulator activity at human CB1R expressed in CHO cells assessed as enhanced binding of [3H]CP55,940 after 60 mins by liquid scintillation spectrometric analysis relative to control; format: cell-based
Cannabinoid receptor 1 [19] = target: T1, Cannabinoid receptor 1; experiment: Inverse agonist activity at human CB1R expressed in CHO-K1 cells assessed as [35S]GTPgammaS binding at 10 uM preincubated for 60 mins prior to [35S]GTPgammaS addition by liquid scintillation spectrometric analysis; format: functional, cell-based
[20] = target: Cannabinoid receptor 1 (Mus musculus) (UniProt P47746); experiment: Antagonist activity at CB1R in mouse brain membranes assessed as inhibition of CP55,940-induced [35S]GTPgammaS binding at 1 uM preincubated for 60 mins prior to [35S]GTPgammaS addition by liquid scintillation spectrometric analysis; format: functional, cell membranes; details: Membrane

T1 sequence (P21554 whole entry): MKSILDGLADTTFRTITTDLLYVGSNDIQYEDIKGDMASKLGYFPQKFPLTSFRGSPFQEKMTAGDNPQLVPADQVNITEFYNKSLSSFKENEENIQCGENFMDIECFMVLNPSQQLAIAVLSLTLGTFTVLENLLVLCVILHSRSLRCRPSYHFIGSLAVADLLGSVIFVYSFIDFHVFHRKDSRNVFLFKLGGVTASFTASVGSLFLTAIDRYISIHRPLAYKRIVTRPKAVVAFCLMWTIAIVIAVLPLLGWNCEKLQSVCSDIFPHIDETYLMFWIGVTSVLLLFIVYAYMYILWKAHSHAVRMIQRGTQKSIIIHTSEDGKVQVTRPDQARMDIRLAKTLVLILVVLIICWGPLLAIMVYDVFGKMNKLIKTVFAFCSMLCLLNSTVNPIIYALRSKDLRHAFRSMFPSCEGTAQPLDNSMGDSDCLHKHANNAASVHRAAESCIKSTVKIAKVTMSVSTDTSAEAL
Cannabinoid receptor 1 (Mus musculus), sequence (P47746 whole entry): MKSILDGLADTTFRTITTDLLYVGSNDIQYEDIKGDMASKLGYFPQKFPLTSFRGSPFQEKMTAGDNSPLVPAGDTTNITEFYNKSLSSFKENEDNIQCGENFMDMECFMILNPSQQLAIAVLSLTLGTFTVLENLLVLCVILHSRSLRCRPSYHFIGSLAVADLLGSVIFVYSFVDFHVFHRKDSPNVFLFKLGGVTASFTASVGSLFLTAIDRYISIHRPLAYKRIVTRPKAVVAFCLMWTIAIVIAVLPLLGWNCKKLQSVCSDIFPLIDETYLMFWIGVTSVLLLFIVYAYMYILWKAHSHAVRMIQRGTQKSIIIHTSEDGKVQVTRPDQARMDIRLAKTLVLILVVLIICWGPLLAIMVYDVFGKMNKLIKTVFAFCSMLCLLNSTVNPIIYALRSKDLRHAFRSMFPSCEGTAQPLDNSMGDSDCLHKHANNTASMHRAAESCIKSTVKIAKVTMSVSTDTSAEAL

Row | SMILES | Ratio EC50 (Cannabinoid receptor 1 [1]) | Emax (Cannabinoid receptor 1 [2]) [%] | Emax (Cannabinoid receptor 1 [3]) [%] | pEC50 (Cannabinoid receptor 1 [4]) | pEC50 (Cannabinoid receptor 1 [5]) | Emax (Cannabinoid receptor 1 [18]) [%] | other results
1 | [N-]=[N+]=NCCc1c(C(=O)NCCc2ccc(N3CCCCC3)cc2)[nH]c2ccc(Cl)cc12 | 14 | 105 | 96.8 | 5.95 | – | – | –
2 | O=C(Nc1ccc(N=C=S)cc1)Nc1cccc(-c2cccc(N3CCCC3)n2)c1 | 3 | 106 | 78.2 | – | 7.37 | – | –
3 | CCc1c(C(=O)NCCc2ccc(N3CCCCC3)cc2)[nH]c2ccc(N=C=S)cc12 | 14 | 103 | 111 | 6.76 | 8.68 | 116 | Emax [6]: 87.8%; Activity [7]: inactive; Activity (Cannabinoid receptor 1 [8]): inactive; Emax [9]: 11.2%; fold change (FC) (Cannabinoid receptor 1 [10]): 2.25; Activity (Cannabinoid receptor 1 [11]): inactive; Emax [12]: 71.7%; pEC50 (Cannabinoid receptor 1 [13]): 7.71; Activity [14]: inactive; inhibition (Cannabinoid receptor 1 [15]): Active; inhibition [16]: Dose-dependent effect; Activity (Cannabinoid receptor 1 [17]): tde
4 | CCc1c(C(=O)NCCc2ccc(N3CCCCC3)cc2)[nH]c2ccc(Cl)cc12 | – | 105 | 78.1 | 6.49 | 8.04 | 109 | Emax [9]: 32.4%; Activity (Cannabinoid receptor 1 [19]): Active; Activity (Cannabinoid receptor 1 [10]): inactive; inhibition [20]: Active; pEC50 (Cannabinoid receptor 1 [13]): 7.08
5 | CCCCCCC(C)(C)c1ccc([C@@H]2C[C@H](O)CC[C@H]2CCCO)c(O)c1 | – | – | – | – | – | -90.1 | –
6 | O=C(NCCc1ccc(N2CCCCC2)cc1)c1[nH]c2ccc(Cl)cc2c1CCN=C=S | 14 | 107 | -8.84 | < 5.00 | 6.68 | – | –
7 | [N-]=[N+]=Nc1ccc(NC(=O)Nc2cccc(-c3cccc(N4CCCC4)n3)c2)cc1 | 3 | 105 | 103 | 6.78 | 7.55 | – | –
8 | CCc1c(C(=O)NCCc2ccc(N3CCCCC3)cc2)[nH]c2ccc(N=[N+]=[N-])cc12 | 14 | 105 | 87.1 | – | – | – | –
9 | O=C(Nc1ccc(Cl)cc1)Nc1cccc(-c2cccc(N3CCCC3)n2)c1 | – | 106 | 115 | – | – | – | –
10 | O=C(Nc1ccc(C(=O)c2ccccc2)cc1)Nc1cccc(-c2cccc(N3CCCC3)n2)c1 | 3 | 77.4 | 28.1 | < 5.00 | 6.17 | – | –
